Results from ChEMBL document CHEMBL1201862, “PubChem BioAssay data set” (2004).
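Briefly, cells in 96-well plates were exposed to five compound concentrations for 48 h, and endpoints were estimated by linear interpolation. GI50 = concentration required for 50% inhibition of growth.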 Calls of active or inactive are those of the source. Rule as the data show it: active = GI50 up to about 1.1 µM and inactive = higher.

Key:
Test in all cases: NCI-60 cell line screen, 48 h
786-0 = tested on: 786-0
NCI-H226 = tested on: NCI-H226
SNB-75 = tested on: SNB-75
HL-60 = tested on: HL-60
LOX IMVI = tested on: LOX IMVI
SF-295 = tested on: SF-295
SF-539 = tested on: SF-539
UACC-257 = tested on: UACC-257
SR = tested on: SR
SK-MEL-2 = tested on: SK-MEL-2
A498 = tested on: A498
OVCAR-5 = tested on: OVCAR-5
EKVX = tested on: EKVX
SNB-19 = tested on: SNB-19
ACHN = tested on: ACHN
K562 = tested on: K562
SK-MEL-28 = tested on: SK-MEL-28
UO-31 = tested on: UO-31
Malme-3M = tested on: Malme-3M
OVCAR-4 = tested on: OVCAR-4

Row | Structure (SMILES) | GI50 (786-0) | GI50 (NCI-H226) | GI50 (SNB-75) | GI50 (HL-60) | GI50 (LOX IMVI) | GI50 (SF-295) | GI50 (SF-539) | GI50 (UACC-257) | GI50 (SR) | GI50 (SK-MEL-2) | GI50 (A498) | GI50 (OVCAR-5) | GI50 (EKVX) | GI50 (SNB-19) | GI50 (ACHN) | GI50 (K562) | GI50 (SK-MEL-28) | GI50 (UO-31) | GI50 (Malme-3M) | GI50 (OVCAR-4)
1 | c1ncn(C23C4C5C6C4C2C6C53)n1 (stereo unspecified) | > 100 µM (inactive) | > 100 µM (inactive) | > 100 µM (inactive) | > 100 µM (inactive) | > 100 µM (inactive) | > 100 µM (inactive) | > 100 µM (inactive) | > 100 µM (inactive) | > 100 µM (inactive) | > 100 µM (inactive) | > 100 µM (inactive) | > 100 µM (inactive) | > 100 µM (inactive) | > 100 µM (inactive) | > 100 µM (inactive) | > 100 µM (inactive) | > 100 µM (inactive) | – | – | –
2 | CN(C)Cc1cc(/N=N/c2ccccc2Cl)cc(CN(C)C)c1O | 76.9 µM (inactive) | > 100 µM (inactive) | 56.4 µM (inactive) | 20.8 µM (inactive) | 16.9 µM (inactive) | 44.7 µM (inactive) | > 100 µM (inactive) | 20.1 µM (inactive) | 45.2 µM (inactive) | – | 33.7 µM (inactive) | 46.9 µM (inactive) | > 100 µM (inactive) | > 100 µM (inactive) | > 100 µM (inactive) | 37.5 µM (inactive) | 18.5 µM (inactive) | 23.3 µM (inactive) | > 10 µM (inactive) | 60.1 µM (inactive)
3 | C/C(=C/CC[C@](C)(OC1OC(CO)C(O)C(O)C1O)[C@H]1CC[C@]2(C)[C@@H]1CC[C@@H]1[C@@]3(C)CC[C@H](O)C(C)(C)[C@@H]3C[C@H](O)[C@]12C)CO (stereo partly specified) | 12.6 µM (inactive) | 26.8 µM (inactive) | 8.43 µM (inactive) | 16.5 µM (inactive) | 18.1 µM (inactive) | 14.8 µM (inactive) | 10.4 µM (inactive) | 22.6 µM (inactive) | 22.2 µM (inactive) | – | 60 µM (inactive) | 49.8 µM (inactive) | 60.8 µM (inactive) | 22 µM (inactive) | 40.6 µM (inactive) | 13.4 µM (inactive) | 18.2 µM (inactive) | 37.9 µM (inactive) | 21.6 µM (inactive) | 51.9 µM (inactive)
4 | CC(/C=C/c1ccccc1)=N\N=C(C)\C=C\c1ccccc1 | > 100 µM (inactive) | > 100 µM (inactive) | 42.2 µM (inactive) | > 100 µM (inactive) | > 100 µM (inactive) | > 100 µM (inactive) | – | > 100 µM (inactive) | > 100 µM (inactive) | > 100 µM (inactive) | > 100 µM (inactive) | > 100 µM (inactive) | > 100 µM (inactive) | – | > 100 µM (inactive) | > 100 µM (inactive) | > 100 µM (inactive) | – | > 100 µM (inactive) | > 100 µM (inactive)
5 | CC(C)[C@H]1NC(=O)[C@H]2N=C(S[C@H]2C)[C@@H]2CCCN2C(=O)[C@H](Cc2ccccc2)NC(=O)[C@@H]2CSC(=N2)[C@@H](Cc2ccccc2)NC(=O)[C@@H]2CSC1=N2 | 33.7 µM (inactive) | 21 µM (inactive) | – | 0.0912 µM (active) | 29.7 µM (inactive) | 30.3 µM (inactive) | 22.3 µM (inactive) | 31.7 µM (inactive) | 5.65 µM (inactive) | 18.3 µM (inactive) | 19.2 µM (inactive) | > 50 µM (inactive) | 27.5 µM (inactive) | 24.2 µM (inactive) | 25.4 µM (inactive) | 4.71 µM (inactive) | 14.1 µM (inactive) | 21.8 µM (inactive) | > 50 µM (inactive) | 10.9 µM (inactive)
6 | CCN(CC)c1ccc2c(c1)Oc1ccc(N(CC)CC)cc1C21Oc2ccccc2-c2c1c1ccccc1n2CC (stereo unspecified) | 4.05 µM (inactive) | 7.74 µM (inactive) | > 100 µM (inactive) | 1.25 µM (inactive) | 3.24 µM (inactive) | 2.7 µM (inactive) | – | 2.89 µM (inactive) | 4.48 µM (inactive) | – | 8.34 µM (inactive) | – | 6.47 µM (inactive) | 6.87 µM (inactive) | 1.32 µM (inactive) | 0.679 µM (active) | 2 µM (inactive) | 1.43 µM (inactive) | 1.73 µM (inactive) | 3.58 µM (inactive)
7 | CC(C)/C(Cl)=N\OC(NC(=O)P(=O)(c1ccccc1)c1ccccc1)(C(F)(F)F)C(F)(F)F | 10.3 µM (inactive) | 10.3 µM (inactive) | < 0.01 µM (active) | 11.5 µM (inactive) | 11.3 µM (inactive) | 11.6 µM (inactive) | 13.5 µM (inactive) | 17.8 µM (inactive) | 14.7 µM (inactive) | – | 14.9 µM (inactive) | 24.3 µM (inactive) | 20 µM (inactive) | 17.9 µM (inactive) | 3.62 µM (inactive) | 4.25 µM (inactive) | 14.9 µM (inactive) | 7.05 µM (inactive) | 7.52 µM (inactive) | 5 µM (inactive)
8 | CC(=O)OCCn1cnc2c(NCC=C(C)C)ncnc21 | > 100 µM (inactive) | > 100 µM (inactive) | > 100 µM (inactive) | > 100 µM (inactive) | > 100 µM (inactive) | > 100 µM (inactive) | > 100 µM (inactive) | > 100 µM (inactive) | > 100 µM (inactive) | – | > 100 µM (inactive) | > 100 µM (inactive) | > 100 µM (inactive) | > 100 µM (inactive) | > 100 µM (inactive) | > 100 µM (inactive) | > 100 µM (inactive) | > 100 µM (inactive) | > 100 µM (inactive) | > 100 µM (inactive)
9 | CCN(CC)/[N+]([O-])=N/OCC(C)O (stereo unspecified) | > 100 µM (inactive) | > 100 µM (inactive) | > 100 µM (inactive) | > 100 µM (inactive) | > 100 µM (inactive) | > 100 µM (inactive) | > 100 µM (inactive) | > 100 µM (inactive) | > 100 µM (inactive) | > 100 µM (inactive) | > 100 µM (inactive) | > 100 µM (inactive) | > 100 µM (inactive) | > 100 µM (inactive) | > 100 µM (inactive) | > 100 µM (inactive) | > 100 µM (inactive) | > 100 µM (inactive) | – | –
10 | N#CC1=C(N2CCCC2)NC(=O)CC1=O | > 100 µM (inactive) | > 100 µM (inactive) | – | > 100 µM (inactive) | > 100 µM (inactive) | > 100 µM (inactive) | > 100 µM (inactive) | > 100 µM (inactive) | > 100 µM (inactive) | > 100 µM (inactive) | > 100 µM (inactive) | > 100 µM (inactive) | > 100 µM (inactive) | > 100 µM (inactive) | > 100 µM (inactive) | > 100 µM (inactive) | > 100 µM (inactive) | > 100 µM (inactive) | > 100 µM (inactive) | > 100 µM (inactive)
11 | COP(=O)(CC(=O)C1OC(C)(C)OC1C(O)COCc1ccccc1)OC (stereo unspecified) | > 100 µM (inactive) | > 100 µM (inactive) | > 100 µM (inactive) | > 100 µM (inactive) | > 100 µM (inactive) | > 100 µM (inactive) | > 100 µM (inactive) | > 100 µM (inactive) | > 100 µM (inactive) | > 100 µM (inactive) | > 100 µM (inactive) | > 100 µM (inactive) | > 100 µM (inactive) | – | > 100 µM (inactive) | > 100 µM (inactive) | > 100 µM (inactive) | > 100 µM (inactive) | > 100 µM (inactive) | > 100 µM (inactive)
12 | Cc1ccc(S(=O)OCc2c(C)c(C)c(COS(=O)c3ccc(C)cc3)c(C)c2C)cc1 (stereo unspecified) | > 100 µM (inactive) | > 100 µM (inactive) | > 100 µM (inactive) | > 100 µM (inactive) | > 100 µM (inactive) | > 100 µM (inactive) | > 100 µM (inactive) | > 100 µM (inactive) | > 100 µM (inactive) | – | > 100 µM (inactive) | > 100 µM (inactive) | > 100 µM (inactive) | > 100 µM (inactive) | > 100 µM (inactive) | 65.5 µM (inactive) | > 100 µM (inactive) | > 100 µM (inactive) | > 100 µM (inactive) | > 100 µM (inactive)
13 | COC1OC(CO)C(O)C1N (stereo unspecified) | > 100 µM (inactive) | > 100 µM (inactive) | > 100 µM (inactive) | > 100 µM (inactive) | > 100 µM (inactive) | > 100 µM (inactive) | > 100 µM (inactive) | > 100 µM (inactive) | > 100 µM (inactive) | – | > 100 µM (inactive) | > 100 µM (inactive) | > 100 µM (inactive) | > 100 µM (inactive) | > 100 µM (inactive) | > 100 µM (inactive) | > 100 µM (inactive) | – | > 100 µM (inactive) | > 100 µM (inactive)
14 | CC(=O)OCC1OC(NC(=S)Nn2c(=O)[nH]c3ccccc3c2=O)C(OC(C)=O)C(OC(C)=O)C1OC(C)=O (stereo unspecified) | > 100 µM (inactive) | > 100 µM (inactive) | > 100 µM (inactive) | 57.4 µM (inactive) | > 100 µM (inactive) | > 100 µM (inactive) | > 100 µM (inactive) | > 100 µM (inactive) | 64.9 µM (inactive) | > 100 µM (inactive) | > 100 µM (inactive) | > 100 µM (inactive) | > 100 µM (inactive) | > 100 µM (inactive) | > 100 µM (inactive) | – | > 100 µM (inactive) | > 100 µM (inactive) | > 100 µM (inactive) | –
15 | COc1ccc(-n2nnc(C(N)=O)c2O)cc1 | > 100 µM (inactive) | > 100 µM (inactive) | > 100 µM (inactive) | > 100 µM (inactive) | > 100 µM (inactive) | > 100 µM (inactive) | – | > 100 µM (inactive) | > 100 µM (inactive) | > 100 µM (inactive) | > 100 µM (inactive) | > 100 µM (inactive) | > 100 µM (inactive) | > 100 µM (inactive) | > 100 µM (inactive) | > 100 µM (inactive) | > 100 µM (inactive) | 32.3 µM (inactive) | 91 µM (inactive) | > 100 µM (inactive)
